Measured values taken from patent publication US20240150277A1, “Covalent PPARG inverse-agonists” (Bayer Aktiengesellschaft, priority 2022, published 2024).

What was measured:
PPARG receptors = biological target: T1, PPARG receptors (Homo sapiens, UniProt P37231); assay: RT-112-FABP4-NLuc Reporter Gene Assay (inverse agonism); type: cell-based; conditions: incubated over night; for IC50: PPARG_RT-112_FABP4_NLuc_inverse agonist IC50 - [mol/l], bladder cancer cell line RT-112/84, NanoLuc in FABP4 3′ UTR, 50 μM to 0.03 nM; for Emax: RT112/84, read-out: PPARG_RT-112_FABP4_NLuc_inverse agonist Efficacy - [%], bladder cancer cell line RT-112/84, NanoLuc in FABP4 3′ UTR
T1 construct: leading to PPARG dependent expression of the NanoLuc@ Luciferase; endogenous in cells
T1 sequence (P37231 1-505): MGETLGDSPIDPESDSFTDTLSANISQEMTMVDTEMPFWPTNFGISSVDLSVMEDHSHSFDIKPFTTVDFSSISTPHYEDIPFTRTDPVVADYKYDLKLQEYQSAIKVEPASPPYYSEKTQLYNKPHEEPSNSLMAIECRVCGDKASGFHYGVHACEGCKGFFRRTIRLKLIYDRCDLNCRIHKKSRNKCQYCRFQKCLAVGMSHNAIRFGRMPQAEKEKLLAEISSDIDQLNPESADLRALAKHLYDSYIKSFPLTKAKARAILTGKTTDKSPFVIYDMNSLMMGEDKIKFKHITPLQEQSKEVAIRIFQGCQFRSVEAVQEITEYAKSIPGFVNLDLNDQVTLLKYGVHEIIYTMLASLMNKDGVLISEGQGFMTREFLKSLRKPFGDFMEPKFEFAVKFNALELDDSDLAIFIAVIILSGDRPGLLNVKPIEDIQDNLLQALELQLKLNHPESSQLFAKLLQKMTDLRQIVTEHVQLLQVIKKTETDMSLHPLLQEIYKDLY
Description: Inverse agonists reduce the basal expression of the Luciferase resulting in a decrease of the Luciferase signal after addition of substrate and cell lysis. To exclude toxic effects of the compounds a parallel measurement of cell viability was performed based on the CellTiter Glo Assay (Promega).
On the next day 10 μl of test compounds dissolved in DMEM/F12 2% FBS and 0,01% BSA are placed in the wells of the microtiter plates. Final concentrations ranged from 50 μM to 0.03 nM. […] On the next day the NanoLuc Luciferase activity was measured by addition of 40 μl of NanoLuc substrate and lysis buffer (Promega, Madison, Wisconsin) diluted in 2 mM Ca-tyrode buffer (20 mM HEPES, 130 mM NaCl, 5 mM KCl, 5 mM NaHCO3, 2 mM MgCl2, pH 7,4). The resulting light signal was measured for 60 seconds in a luminometer. Every sample was tested in quadruples and mean values were used to calculate the IC50 values and efficacies of the compounds.

UMUC9 cells = assay: Proliferation UMUC9 H2B-GFP assay (Incucyte); type: cell-based; conditions: 7 days of treatment; for Emax: UM-UC-9, 168 h, % efficacy (span); for IC50: UM-UC-9, relative IC50, Day 1 subtracted, percentage of DMSO control
Description: Proliferation UMUC9 H2B-GFP assay
Instrument: Incucyte® (Sartorius).
Description: Incucyte® Proliferation Assay measures cell proliferation based on nuclei count using live-cell time-lapse imaging. […] Measurements were performed on the day of treatment (Day 1 reading) and after 7 days of treatment (Day 8 reading). Green fluorescence in cell nuclei is measured using the instrument (Image Channels: Phase, Green; Acquisition time: 300 ms; Magnification: 4×).
Analysis: Selected metrics for analysis: Phase Object Confluence (Percent), Nuclei Count (1/Well) and Total Nuclei Area (μm^2/Well). Day 1 measurements were subtracted from each Day 8 measurement and expressed as percentage of the vehicle (DMSO) control. Percentage proliferation values were then plotted against compound concentration using GraphPad PRISM software. The Sigmoidal 4PL X is log (concentration) model of […] was used. Relative IC50 values and % efficacy (span) is reported below.

Row | Compound | IC50 (PPARG receptors) [nM] | Emax (PPARG receptors) [%] | Emax (UMUC9 cells) [%] | IC50 (UMUC9 cells) [nM]
1 | Cc1ccccc1CNC(=O)c1ccc(Cl)c(C(=O)Nc2ccccc2)c1 [Example 47, 4-chloro-N^1-[(2-methylphenyl)methyl]-N^3-phenylbenzene-1,3-dicarboxamide] | 895 | 92 | 66.9 | 2240
2 | Cc1cc(OCCO)ccc1NC(=O)c1cc(C(=O)NCc2ccc(F)c(F)c2)cc(Cl)c1Cl [Example 8, 4,5-dichloro-N^1-[(3,4-difluorophenyl)methyl]-N^3-[4-(2-hydroxyethoxy)-2-methylphenyl]benzene-1,3-dicarboxamide] | 0.9 | 96 | 71.5 | 32.2
3 | O=C(NCc1ccc(F)c(F)c1)c1cc(C(=O)Nc2ccc(N3CCOCC3)cc2)c(Cl)cc1F [Example 35, 4-chloro-N^1-(3,4-difluorobenzyl)-6-fluoro-N^3-(4-morpholinophenyl)isophthalamide] | 21.5 | 102 | 92.3 | 182
4 | COCCOc1ccc(NC(=O)c2cc(C(=O)NCc3ccc(F)c(F)c3)c(F)c(C)c2Cl)c(C)c1 [Example 19, 4-chloro-N^1-[(3,4-difluorophenyl)methyl]-6-fluoro-N^3-[4-(2-methoxyethoxy)-2-methylphenyl]-5-methylbenzene-1,3-dicarboxamide] | 1.22 | 144 | 65.9 | 11.6
5 | O=C(NCc1ccccc1)c1cc(Cl)c(Br)c(C(=O)Nc2ccccc2)c1 [Example 49, N^1-benzyl-4-bromo-5-chloro-N^3-phenylbenzene-1,3-dicarboxamide] | 0.99 | 72.5 | 34.5 | 3170
6 | Cc1cccc(-c2nc3cc(NC(=O)c4cc(C(=O)NCc5ccc(F)c(F)c5)c(F)c(C)c4Cl)ccc3o2)c1 [Example 20, 4-chloro-N^1-[(3,4-difluorophenyl)methyl]-6-fluoro-5-methyl-N^3-[2-(3-methylphenyl)-1,3-benzoxazol-5-yl]benzene-1,3-dicarboxamide] | 0.455 | 114 | 69.6 | 5.91
